Species on record: Rattus norvegicus
Assay: Open TG-GATES - Regimen: Daily Repeat
Type: toxicity, organism-based, Sprague-Dawley
Design: regimen Daily Repeat, gender Male, age 6 weeks
Settings: in vivo, po, route gavage; for Eos / Fbg / Hb / Ht / Lym / MCH / MCV / Mono / Neu / PT / Plat / RBC / Ret / WBC / APTT / Bas: tissue Blood; for KIDNEY_L / KIDNEY_R / KIDNEY_TOTAL: tissue Kidney; for LIVER: tissue Liver; for ALP / ALT / AST / BUN / CRE / Ca / Cl / DBIL / GLC / IP / K / LDH / Na / PL / RALB / TBIL / TC / TP / gamma-GTP: tissue Plasma
[1] = 100 mg/kg, 72 h, dose level Middle, time 3 day
[2] = 100 mg/kg, […], dose level Middle, time 7 day
[3] = 100 mg/kg, […], dose level Middle, time 14 day
[4] = 100 mg/kg, […], dose level Middle, time 28 day
[5] = 300 mg/kg, 72 h, dose level High, time 3 day

NC(=O)N1c2ccccc2C=Cc2ccccc21 [CARBAMAZEPINE]
Eos [1]: 1.2%
Fbg [1]: 224.6 mg/dL
Hb [1]: 13.6 g/dL
Ht [1]: 39.9%
Lym [1]: 79%
MCH [1]: 21.3 pg
MCV [1]: 62.4 fL
Mono [1]: 2.4%
Neu [1]: 16.4%
PT [1]: 11.9 s
Plat [1]: 125.3 x10_4/uL
RBC [1]: 638.8 x10_4/ul
Ret [1]: 4.9%
WBC [1]: 79.2 x10_2/uL
KIDNEY_L [1]: 1 g
KIDNEY_R [1]: 1 g
KIDNEY_TOTAL [1]: 2.1 g
LIVER [1]: 12.1 g
ALP [1]: 795 IU/L
ALT [1]: 39.6 IU/L
AST [1]: 67.2 IU/L
BUN [1]: 15.8 mg/dL
CRE [1]: 0.4 mg/dL
Ca [1]: 11.1 mg/dL
Cl [1]: 103.4 meq/L
DBIL [1]: 0.084 mg/dL
GLC [1]: 217.2 mg/dL
IP [1]: 7.9 mg/dL
K [1]: 3.5 meq/L
LDH [1]: 212.4 IU/L
Na [1]: 141.4 meq/L
PL [1]: 154.4 mg/dL
RALB [1]: 3.4 g/dL
TBIL [1]: 0.1 mg/dL
TC [1]: 80.6 mg/dL
TP [1]: 5.8 g/dL
gamma-GTP [1]: 0.8 IU/L
TERMINAL_BW [2]: 271.4 g
TERMINAL_BW [3]: 314.7 g
TERMINAL_BW [4]: 397.6 g
APTT [2]: 20.2 s
Bas [2]: 0%
Eos [2]: 1%
Fbg [2]: 229.8 mg/dL
Hb [2]: 13.3 g/dL
Ht [2]: 39.4%
Lym [2]: 85%
MCH [2]: 21.1 pg
MCV [2]: 62.5 fL
Mono [2]: 2.6%
Neu [2]: 10.8%
PT [2]: 11.6 s
Plat [2]: 134.8 x10_4/uL
RBC [2]: 630.8 x10_4/ul
Ret [2]: 5.1%
WBC [2]: 131.2 x10_2/uL
APTT [3]: 21.8 s
Bas [3]: 0%
Eos [3]: 0.6%
Fbg [3]: 213.4 mg/dL
Hb [3]: 14.4 g/dL
Ht [3]: 41.3%
Lym [3]: 80%
MCH [3]: 20.6 pg
MCV [3]: 59.1 fL
Mono [3]: 2%
Neu [3]: 16%
PT [3]: 12.4 s
Plat [3]: 122.9 x10_4/uL
RBC [3]: 698.6 x10_4/ul
Ret [3]: 3.8%
WBC [3]: 129.1 x10_2/uL
APTT [4]: 21.1 s
Bas [4]: 0%
Eos [4]: 1.2%
Fbg [4]: 222 mg/dL
Hb [4]: 15.7 g/dL
Ht [4]: 44.3%
Lym [4]: 80%
MCH [4]: 19.5 pg
MCV [4]: 55.1 fL
Mono [4]: 2.4%
Neu [4]: 15.4%
PT [4]: 12.8 s
Plat [4]: 105.9 x10_4/uL
RBC [4]: 804 x10_4/ul
Ret [4]: 2%
WBC [4]: 98.2 x10_2/uL
KIDNEY_L [2]: 1.2 g
KIDNEY_R [2]: 1.1 g
KIDNEY_TOTAL [2]: 2.3 g
KIDNEY_L [3]: 1.3 g
KIDNEY_R [3]: 1.3 g
KIDNEY_TOTAL [3]: 2.6 g
KIDNEY_L [4]: 1.6 g
KIDNEY_R [4]: 1.5 g
KIDNEY_TOTAL [4]: 3.1 g
LIVER [2]: 14.5 g
LIVER [3]: 14.8 g
LIVER [4]: 16.8 g
ALP [2]: 857.6 IU/L
ALT [2]: 34 IU/L
AST [2]: 63 IU/L
BUN [2]: 17 mg/dL
CRE [2]: 0.5 mg/dL
Ca [2]: 10.7 mg/dL
Cl [2]: 102.2 meq/L
DBIL [2]: 0.1 mg/dL
GLC [2]: 207.6 mg/dL
IP [2]: 7.3 mg/dL
K [2]: 3.6 meq/L
LDH [2]: 233.2 IU/L
Na [2]: 141.2 meq/L
PL [2]: 175 mg/dL
RALB [2]: 3.5 g/dL
TBIL [2]: 0.1 mg/dL
TC [2]: 93.4 mg/dL
TP [2]: 5.9 g/dL
gamma-GTP [2]: 1 IU/L
ALP [3]: 733.4 IU/L
ALT [3]: 37.6 IU/L
AST [3]: 64.6 IU/L
BUN [3]: 16.5 mg/dL
CRE [3]: 0.5 mg/dL
Ca [3]: 10.6 mg/dL
Cl [3]: 101.6 meq/L
DBIL [3]: 0.1 mg/dL
GLC [3]: 205.4 mg/dL
IP [3]: 7.5 mg/dL
K [3]: 3.7 meq/L
LDH [3]: 203.2 IU/L
Na [3]: 141.4 meq/L
PL [3]: 161.2 mg/dL
RALB [3]: 3.4 g/dL
TBIL [3]: 0.2 mg/dL
TC [3]: 84.4 mg/dL
TP [3]: 5.9 g/dL
gamma-GTP [3]: 1.2 IU/L
ALP [4]: 641.4 IU/L
ALT [4]: 41.2 IU/L
AST [4]: 62.2 IU/L
BUN [4]: 17.4 mg/dL
CRE [4]: 0.4 mg/dL
Ca [4]: 10.2 mg/dL
Cl [4]: 101.8 meq/L
DBIL [4]: 0.092 mg/dL
GLC [4]: 213.8 mg/dL
IP [4]: 7 mg/dL
K [4]: 3.6 meq/L
LDH [4]: 138.6 IU/L
Na [4]: 141.4 meq/L
PL [4]: 158.2 mg/dL
RALB [4]: 3.5 g/dL
TBIL [4]: 0.1 mg/dL
TP [4]: 6.2 g/dL
gamma-GTP [4]: 0.6 IU/L
TERMINAL_BW [5]: 224.7 g
APTT [5]: 20.4 s

From ChEMBL document CHEMBL3885861, “Open TG-GATES”
